Here are results for 7 compounds from patent US6596773B2, “Phenyl substituted pyridine and benzene derivatives” (Hoffmann-La Roche Inc., priority 1999, dated 2003).

SMILES strings stand for the structures.

One data set addresses T1, human NK1 receptor (Homo sapiens, UniProt P25103).
T1 construct: expressed in transfected cells; host or cells: CHO cells infected using the Semliki virus expression system; membrane suspension
Put plainly: NK1 receptor binding assay, displacement of [3H]substance P. To be noted: human NK1 receptors in CHO cells (Semliki virus expression system), [3H]substance P 0.6 nM, 60 min at room temperature; read-out: affinity to the NK-1 receptor, given as pKi (converted). How it is done: The affinity of test compounds for the NK1 receptor was evaluated at human NK1 receptors in CHO cells infected with the human NK1 receptor (using the Semliki virus expression system) and radiolabelled with [3H]substance P (final concentration 0.6 nM). Binding assays were performed in HEPES buffer (50 mM, pH 7.4) containing BSA (0.04%) leupeptin ([…]), MnCl2 (3 mM) and phosphoramidon ([…]). Binding assays consisted of […] of membrane suspension (1.25×10^5 cells/assay tube), 0.125 ml of buffer of displacing agent and […] of [3H]substance P. Displacement curves were determined with at least seven concentrations of the compound. The assay tubes were incubated for 60 min at room temperature after which time the tube contents were rapidly filtered under vacuum through GF/C filters presoaked for 60 min with PEI (0.3%) with 2×2 ml washed of HEPES buffer (50 mM, pH 7.4). The radioactivity retained on the filters was measured by scintillation counting. All assays were performed in triplicate in at least 2 separate experiments.
(Loss of bound radioactivity is the signal in a displacement assay; it reports binding, not function.)

T1 sequence (P25103 whole entry): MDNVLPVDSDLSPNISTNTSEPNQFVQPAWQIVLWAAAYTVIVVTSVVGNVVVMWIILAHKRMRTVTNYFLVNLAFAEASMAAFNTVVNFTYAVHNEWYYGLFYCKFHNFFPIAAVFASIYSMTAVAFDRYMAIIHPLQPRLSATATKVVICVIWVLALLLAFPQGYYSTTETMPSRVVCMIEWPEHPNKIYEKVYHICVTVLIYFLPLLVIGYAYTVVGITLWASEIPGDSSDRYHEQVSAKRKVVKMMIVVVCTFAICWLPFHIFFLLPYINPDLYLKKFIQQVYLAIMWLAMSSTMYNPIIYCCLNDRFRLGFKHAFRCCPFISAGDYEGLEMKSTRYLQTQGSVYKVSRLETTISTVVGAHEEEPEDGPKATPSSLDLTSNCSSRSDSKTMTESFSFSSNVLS

On to `CN1CCN(c2cc(C(=O)c3ccccc3)c(C(=O)N(C)Cc3cc(C(F)(F)F)cc(C(F)(F)F)c3)cn2)CC1.Cl`, for which the melting point – broadly, the temperature of the solid-liquid transition – was 105 °C (dec.). The same measure, in the same setting: in the case of `CN1CCN(c2cc(C(=O)c3ccccc3Cl)c(C(=O)N(C)Cc3cc(C(F)(F)F)cc(C(F)(F)F)c3)cn2)CC1.Cl` it was 145 °C (dec.); in that of `CN(C(=O)C(C)(C)c1cc(C(F)(F)F)cc(C(F)(F)F)c1)c1ccc(Cl)cc1C(=O)c1ccccc1` [Example 2, N-(2-Benzoyl-4-chloro-phenyl)-2-(3,5-bis-trifluoromethyl-phenyl)-N-methyl-isobutyramide], 89 to 91 °C. Turning to `CN(Cc1cc(C(F)(F)F)cc(C(F)(F)F)c1)C(=O)c1cnc(N2CCOCC2)cc1Oc1ccccc1` [Example 28, N-(3,5-Bis-trifluoromethyl-benzyl)-N-methyl-6-morpholin-4-yl-4-phenoxy-nicotinamide], the Ki on human NK1 receptor was 13.8 nM. Same read-out and setting: in the case of `CN(Cc1cc(C(F)(F)F)cc(C(F)(F)F)c1)C(=O)c1cnc(N2CCOCC2)cc1Oc1ccccc1Cl` [Example 29, N-(3,5-Bis-trifluoromethyl-benzyl)-4-(2-chloro-phenoxy)-N-methyl-6-morpholin-4-yl-nicotinamide] it was 1.74 nM; in that of `CN1CCN(c2cc(Oc3ccccc3Cl)c(C(=O)N(C)Cc3cc(C(F)(F)F)cc(C(F)(F)F)c3)cn2)CC1` [Example 30, N-(3,5-Bis-trifluoromethyl-benzyl)-4-(2-chloro-phenoxy)-N-methyl-6-(4-methyl-piperazin-1-yl)-nicotinamide], 3.8 nM. With `Cc1ccccc1Oc1cc(N2CCOCC2)ncc1C(=O)N(C)Cc1cc(C(F)(F)F)cc(C(F)(F)F)c1` [Example 31, N-(3,5-Bis-trifluoromethyl-benzyl)-N-methyl-6-morpholin-4-yl-4-o-tolyloxy-nicotinamide], the Ki on human NK1 receptor was 2.75 nM.
